Data on 17 molecules can be found in patent US9617259B2, “Histone deacetylase inhibitors and compositions and methods of use thereof” (CHDI Foundation, Inc., priority 2013, dated 2017).

SMILES strings stand for the structures.

Chain of human catalytic domain HDAC4 protein (amino acids 648-1032) (P56524 648-1032): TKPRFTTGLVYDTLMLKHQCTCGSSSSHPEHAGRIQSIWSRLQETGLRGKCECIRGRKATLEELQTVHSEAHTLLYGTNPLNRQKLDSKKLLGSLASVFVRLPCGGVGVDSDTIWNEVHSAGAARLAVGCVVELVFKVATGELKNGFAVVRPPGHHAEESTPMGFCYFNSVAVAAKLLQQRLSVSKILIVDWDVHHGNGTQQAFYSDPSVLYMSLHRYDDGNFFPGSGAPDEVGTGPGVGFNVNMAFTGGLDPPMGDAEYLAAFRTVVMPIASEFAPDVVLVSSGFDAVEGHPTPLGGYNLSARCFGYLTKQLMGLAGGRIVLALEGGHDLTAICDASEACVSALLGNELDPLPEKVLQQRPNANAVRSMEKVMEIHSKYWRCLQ

The first assay has as its target human catalytic domain HDAC4 protein (amino acids 648-1032) (Homo sapiens (Human), UniProt P56524). In words: Inhibition of HDAC4 catalytic domain enzymatic activity, fluorogenic substrate Boc-Lys(Tfa)-AMC. Conditions: read-out: Biochemical HDAC-4 IC50. From the text: Analysis of Inhibition of HDAC4 with Class IIa Histone Deacetylase (HDAC) Inhibitors
The potency of Class IIa Histone Deacetylase (HDAC) inhibitors is quantified by measuring the Histone Deacetylase 4 (HDAC4) catalytic domain enzymatic activity using the fluorogenic substrate, Boc-Lys(Tfa)-AMC. The substrate is deacetylated to Boc-Lys-AMC by HDAC4. Cleavage by trypsin results in the release of the fluorophore AMC from the deacetylated substrate. The fluorescence of the sample is directly related to the histone deacetylase activity in the sample.
Serial dilutions of the HDAC inhibitors and control reference compound (1-(5-(3-((4-(1,3,4-oxadiazol-2-yl)phenoxy)methyl)-1,2,4-oxadiazol-5-yl)thiophen-2-yl)-2,2,2-trifluoroethanone) are made by first resuspending the lyophilized compound to a final concentration of 10 mM in 100% dimethyl sulfoxide (DMSO). Stocks of 60 μl aliquots of the 10 mM compound in DMSO are prepared and stored at −20° C. From one stock aliquot of each compound to be tested and the reference compound, a 16-point serial dilution is prepared according to
2 μl (200×) of each diluted solution and each control (full activity: 100% DMSO alone or full inhibition 1 mM) is stamped into V-bottomed polypropylene 384-well compound plates using either the Bravo (384-well head from Agilent) or 12.5 μl 16-channel Matrix multi-channel pipette (Matrix Technologies Ltd).
A working solution of enzyme is prepared from a 500 μg/ml stock aliquot of HDAC4 catalytic domain (thawed on ice) diluted to 0.2 μg/ml with assay buffer (50 mM Tris-HCl, 137 mM NaCl, 2.7 mM KCl, and 1 mM MgCl2 at pH 8 and equilibrated to room temperature) just prior to the addition of the enzyme to the assay.
5× (50 μM) substrate is prepared just prior to the addition to the assay. A 1 mM substrate stock is made by diluting a 100 mM Boc-Lys(Tfa)-AMC in DMSO solution 1:100 by adding it drop-wise to assay buffer (equilibrated to room temperature) while vortexing at slow speed to prevent precipitation. The 5× substrate is prepared by diluting the 1 mM substrate solution 1:20 by adding it drop-wise to assay buffer (equilibrated to room temperature) while vortexing at slow speed to prevent precipitation.
3× (30 μM) Developer/Stop Solution is prepared just prior to addition to the plate by diluting a stock solution of 10 mM reference compound 1:333 in 25 mg/ml trypsin (PAA Laboratories Ltd.) equilibrated to room temperature.
5 μl of each solution of 1:20 diluted compound from above is transferred to a clear bottomed, black, 384-well assay plate using the Bravo or the Janus (384-well MDT head from Perkin Elmer). Using a 16-channel Matrix multi-channel pipette, 35 μl of the working solution of HDAC4 catalytic domain enzyme (0.2 μg/ml in assay buffer) is transferred to the assay plate. The assay is then started by adding 10 μl of 5× (50 μM) substrate to the assay plates using either the Bravo, Janus or 16-channel Matrix multi-channel pipette. The assay plate is then shaken for two minutes on an orbital shaker at 900 rpm (rotations per minute). Next the plate is incubated for 15 minutes at 37° C. The reaction is stopped by adding 25 al of 3× (30 μM) developer/stop solution to the assay plates using either the Bravo, Janus or a 16-channel Matrix multi-channel pipette. Assay plates are then shaken for 5 minutes on an orbital shaker at 1200 rpm. Next, the assay plates are incubated at 37° C. for 1 hour in a tissue culture incubator. Finally, the fluorescence is measured (Excitation: 355 nm, Emission: 460 nm) using PerkinElmer EnVision in top read mode.
On to `Cc1ncc(C2=C[C@@](C(=O)NO)(c3cccc(F)c3C)CC2)cn1` [Example 9, (R)-1-(3-fluoro-2-methylphenyl)-N-hydroxy-3-(2-methylpyrimidin-5-yl)cyclopent-2-enecarboxamide], for which the IC50 (usually the concentration that gives 50% inhibition) worked out at 26.8 µM. On the same count and under the same terms, the result for `O=C(NO)C1(c2ccccc2F)CC=CC1` [Example 31, 1-(2-fluorophenyl)-N-hydroxy-cyclopent-3-enecarboxamide] reads 8.3 µM; that for `Cc1c(F)cccc1[C@@]1(C(=O)NO)C=C(C2CC2)CC1` [Example 32, (S)-3-cyclopropyl-1-(3-fluoro-2-methylphenyl)-N-hydroxycyclopent-2-enecarboxamide], 0.04 µM; that for `O=C(NO)[C@]1(c2ccccc2)C=C(c2ccccc2)CC1` [Example 33, (S)—N-hydroxy-1,3-diphenylcyclopent-2-enecarboxamide], 0.19 µM. Consider `O=C(NO)[C@@]1(c2ccccc2)C=C(c2ccccc2)CC1` [Example 34, (R)—N-hydroxy-1,3-diphenylcyclopent-2-enecarboxamide], for which the 50% inhibitory concentration (IC50) came to 31 µM. On the same count and under the same terms, the figure for `O=C(NO)[C@]1(c2ccccc2)C=C(c2cncc(F)c2)CC1` [Example 35, (S)-3-(5-fluoropyridin-3-yl)-N-hydroxy-1-phenylcyclopent-2-enecarboxamide] is 0.34 µM; for `Cc1ncc(Cl)cc1C1=C[C@](C(=O)NO)(c2cccc(F)c2C)CC1` [Example 36, (S)-3-(5-chloro-2-methylpyridin-3-yl)-1-(3-fluoro-2-methylphenyl)-N-hydroxycyclopent-2-enecarboxamide] it is 0.02 µM. On the same count and under the same terms, the figure for `Cc1ncccc1C1=C[C@](C(=O)NO)(c2cccc(F)c2C)CC1` [Example 37, (S)-1-(3-fluoro-2-methylphenyl)-N-hydroxy-3-(2-methylpyridin-3-yl)cyclopent-2-enecarboxamide] is 0.01 µM. Consider `Cc1c(F)cccc1[C@@]1(C(=O)NO)C=C(c2ccc3cnn(C)c3c2)CC1` [Example 38, (S)-1-(3-fluoro-2-methylphenyl)-N-hydroxy-3-(1-methyl-1H-indazol-6-yl)cyclopent-2-enecarboxamide], for which the IC50 turned out to be 0.01 µM.

For the molecule `Cc1c(F)cccc1[C@@]1(C(=O)NO)C=C(c2ccc3cnn(C(F)F)c3c2)CC1` [Example 39, (S)-3-(1-(difluoromethyl)-1H-indazol-6-yl)-1-(3-fluoro-2-methylphenyl)-N-hydroxycyclopent-2-enecarboxamide], the half-inhibitory concentration (IC50) was 0.03 µM. For `Cc1c(F)cccc1[C@@]1(C(=O)NO)C=C(c2ccc3scnc3c2)CC1` [Example 40, (S)-3-(benzo[d]thiazol-5-yl)-1-(3-fluoro-2-methylphenyl)-N-hydroxycyclopent-2-enecarboxamide], the IC50 is 0.01 µM.

With `Cc1c(F)cccc1[C@@]1(C(=O)NO)C=C(c2cc3ccccc3s2)CC1` [Example 41, (S)-3-(benzo[b]thiophen-2-yl)-1-(3-fluoro-2-methylphenyl)-N-hydroxycyclopent-2-enecarboxamide], the IC50 was determined as 0.02 µM. For `Cc1c([C@@]2(C(=O)NO)C=C(c3ccc4cnn(C)c4c3)CC2)ccc(F)c1F` [Example 42, (S)-1-(3,4-difluoro-2-methylphenyl)-N-hydroxy-3-(1-methyl-1H-indazol-6-yl)cyclopent-2-enecarboxamide], the 50% inhibitory concentration (IC50) worked out at 0.01 µM.

Turning to `O=C(NO)C1(c2ccccc2)CC=C(c2cncc(F)c2)CC1` (stereo not drawn) [Example 43, 4-(5-fluoropyridin-3-yl)-N-hydroxy-1,2,3,6-tetrahydro-[1,1′-biphenyl]-1-carboxamide], the half-inhibitory concentration (IC50) came out at 3.6 µM.

Regarding `Cc1c(F)cccc1C1(C(=O)NO)CC=C(c2cncc(F)c2)CC1` (stereo not drawn) [Example 44, 3′-fluoro-4-(5-fluoropyridin-3-yl)-N-hydroxy-2′-methyl-1,2,3,6-tetrahydro-[1,1′-biphenyl]-1-carboxamide], the IC50 came to 0.49 µM.

On to `Cc1c(F)cccc1C1(C(=O)NO)CC=C(c2ccc3nccnc3c2)CC1` (stereo not drawn) [Example 45, 3′-fluoro-N-hydroxy-2′-methyl-4-(quinoxalin-6-yl)-1,2,3,6-tetrahydro-[1,1′-biphenyl]-1-carboxamide], for which the half-maximal inhibitory concentration (IC50) is 0.55 µM.

The next assay deals with Jurkat E6-1 cells. As to the kind of experiment: Inhibition of cellular HDAC activity in Jurkat E6-1 cells, fluorogenic substrate Boc-Lys(Tfa)-AMC. It counts as cell-based. Conditions: read-out: Cell IC50. The text has this: Analysis of Inhibition of Cellular HDAC Activity with Class IIa Histone Deacetylase (HDAC) Inhibitors
The potency of Class IIa Histone Deacetylase (HDAC) inhibitors is quantified by measuring the cellular histone deacetylase enzymatic activity using the fluorogenic substrate, Boc-Lys(Tfa)-AMC. After penetration in Jurkat E6-1 cells, the substrate is deacetylated to Boc-Lys-AMC. After cell lysis and cleavage by trypsin, the fluorophore AMC is released from the deacetylated substrate only. The fluorescence of the sample is directly related to the histone deacetylase activity in the sample.
Jurkat E6.1 cells are cultured according to standard cell culture protocols in Jurkat E6.1 Growth Media (RPMI without phenol red, 10% FBS, 10 mM HEPES, and 1 mM Sodium Pyruvate). Jurkat E6.1 cells are counted using a Coulter Counter and resuspended in Jurkat E6.1 growth media at a concentration of 75,000 cells/35 μl. 35 μl or 75,000 cells is seeded into Greiner microtitre assay plates. The plates are then incubated at 37° C. and 5% CO2 while other assay components are being prepared. […]
5 μl of each solution of 1:20 diluted compound from above is transferred to the Greiner microtitre assay plates with 75,000 cells/well using the Bravo. […] Finally the top read fluorescence (Excitation: 355 nm, Emission: 460 nm) is measured using PerkinElmer EnVision.
Take `Cc1ncc(C2=C[C@@](C(=O)NO)(c3cccc(F)c3C)CC2)cn1` [Example 9, (R)-1-(3-fluoro-2-methylphenyl)-N-hydroxy-3-(2-methylpyrimidin-5-yl)cyclopent-2-enecarboxamide]: the IC50 was more than 50 µM. The same measure, in the same setting: the result for `Cc1ncc(C2=C[C@](C(=O)NO)(c3cccc(F)c3C)CC2)cn1` [Example 10, (S)-1-(3-fluoro-2-methylphenyl)-N-hydroxy-3-(2-methylpyrimidin-5-yl)cyclopent-2-enecarboxamide] reads 0.38 µM.
